Experimental data: ChEMBL document CHEMBL5729088, “Thienodiazepine derivatives and application thereof” (2022)

Assays:
[1] = target: T1, Bromodomain-containing protein 4 (Homo sapiens, UniProt O60885); experiment: (§1) BRD4 Biochemical Activity Test: The experiment plate was a plate that contained a gradient concentration of the compound and a corresponding DMSO solution and was prepared with ECHO before the experiment:a) The experiment plate was taken out, and 5 μL/well of “solution A” (protein solution) was added to columns 2-23 of the experiment plate, then 5 μL/well of 1× assay buffer was added to columns 1 and 24 of the experiment plate, and columns 1 and 24 were used as Min control in the experiment system;b) Centrifugation at 1000 rpm was carried out for 30 seconds;c) The plate was incubated at 23° C. for 20 minutes;d) After 20 minutes of incubation, 5 μL/well of “solution B” (polypeptide solution) was added to columns 1-24 of the experiment plate;e) Centrifugation at 1000 rpm was carried out for 30 seconds;f) The plate was incubated at 23° C. for 20 minutes;g) After 20 minutes of incubation, 5 μL/well of “solution C” (test reagent solution) was added to columns 1-24 of the experiment plate;h) Centrifugation at 1000 rpm was carried out for 30 seconds;i) The plate was incubated at 23° C. for 40 minutes;j) The experiment plate was placed on EnVision to read the plate.
[2] = target: T1, Bromodomain-containing protein 4; experiment: as §1; remark: listed apart in the source

Cc1sc2c(c1C)C(c1ccc(Cl)cc1)=N[C@@H](CC(=O)Nc1ccc3c(c1)CS(=O)(=O)C3)c1nnc(C)n1-2
IC50 [1]: 14 nM
IC50 [2]: 49 nM

Cc1sc2c(c1C)C(c1ccc(Cl)cc1)=N[C@@H](CC(=O)Nc1ccc(O)c3c1COC3)c1nnc(C)n1-2
IC50 [1]: 21 nM
IC50 [2]: 100 nM
